Data on 1 compound can be found in PMC9481570, “A small molecule antagonist of SMN disrupts the interaction between SMN and RNAP II” (Nature Communications, 2022).

Structures are written as SMILES. Where “and” joins values, the source holds several entries; their conditions need not be identical. Identical values can stand only once.

Holding throughout (assay): Affinity-purification and mass spectrometry (AP-MS) chemical proteomics, all proteins;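 for Difference: 200 µM free competitor with 20 µM biotin probe overnight in lysate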
Common to all, as to format: binding

The target in assay [1] is T1, proteins displaced from immobilized biotin-Cmpd 1 pulldowns (U2OS cell lysate) (Homo sapiens, UniProt O75616).
T1 construct: endogenous in cells; host or cells: U2OS
Particulars: GN=ERAL1 (O75616).

Assay [2] deals with T2, proteins displaced from immobilized biotin-Cmpd 1 pulldowns (U2OS cell lysate) (Homo sapiens, UniProt P56537).
T2 construct: endogenous in cells; host or cells: U2OS
Particulars: GN=EIF6 (P56537).

For assay [3], the target named is T3, proteins displaced from immobilized biotin-Cmpd 1 pulldowns (U2OS cell lysate) (Homo sapiens, UniProt P62136).
T3 construct: endogenous in cells; host or cells: U2OS
Particulars: GN=PPP1CA (P62136).

Assay [4] has as its target T4, proteins displaced from immobilized biotin-Cmpd 1 pulldowns (U2OS cell lysate) (Homo sapiens, UniProt P62910).
T4 construct: endogenous in cells; host or cells: U2OS
Particulars: GN=RPL32 (P62910).

In assay [5] the target is T5, proteins displaced from immobilized biotin-Cmpd 1 pulldowns (U2OS cell lysate) (Homo sapiens, UniProt Q13765).
T5 construct: endogenous in cells; host or cells: U2OS
The following applies: GN=NACA (Q13765).

Assay [6] addresses T6, proteins displaced from immobilized biotin-Cmpd 1 pulldowns (U2OS cell lysate) (Homo sapiens, UniProt Q92621).
T6 construct: endogenous in cells; host or cells: U2OS
The following applies: GN=NUP205 (Q92621).

Assay [7] concerns the target T7, proteins displaced from immobilized biotin-Cmpd 1 pulldowns (U2OS cell lysate) (Homo sapiens, UniProt Q9BZG1).
T7 construct: endogenous in cells; host or cells: U2OS
The following applies: GN=RAB34 (Q9BZG1).

Assay [8] has as its target T8, proteins displaced from immobilized biotin-Cmpd 1 pulldowns (U2OS cell lysate) (Homo sapiens, UniProt Q9H8H0).
T8 construct: endogenous in cells; host or cells: U2OS
Particulars: GN=NOL11 (Q9H8H0).

The target in assay [9] is T9, proteins displaced from immobilized biotin-Cmpd 1 pulldowns (U2OS cell lysate) (Homo sapiens, UniProt Q9UKD2).
T9 construct: endogenous in cells; host or cells: U2OS
The following applies: GN=MRTO4 (Q9UKD2).

For assay [10], the target named is T10, proteins displaced from immobilized biotin-Cmpd 1 pulldowns (U2OS cell lysate) (Homo sapiens, UniProt Q9Y5B9).
T10 construct: endogenous in cells; host or cells: U2OS
Particulars: GN=SUPT16H (Q9Y5B9).

T10 sequence (Q9Y5B9 whole entry): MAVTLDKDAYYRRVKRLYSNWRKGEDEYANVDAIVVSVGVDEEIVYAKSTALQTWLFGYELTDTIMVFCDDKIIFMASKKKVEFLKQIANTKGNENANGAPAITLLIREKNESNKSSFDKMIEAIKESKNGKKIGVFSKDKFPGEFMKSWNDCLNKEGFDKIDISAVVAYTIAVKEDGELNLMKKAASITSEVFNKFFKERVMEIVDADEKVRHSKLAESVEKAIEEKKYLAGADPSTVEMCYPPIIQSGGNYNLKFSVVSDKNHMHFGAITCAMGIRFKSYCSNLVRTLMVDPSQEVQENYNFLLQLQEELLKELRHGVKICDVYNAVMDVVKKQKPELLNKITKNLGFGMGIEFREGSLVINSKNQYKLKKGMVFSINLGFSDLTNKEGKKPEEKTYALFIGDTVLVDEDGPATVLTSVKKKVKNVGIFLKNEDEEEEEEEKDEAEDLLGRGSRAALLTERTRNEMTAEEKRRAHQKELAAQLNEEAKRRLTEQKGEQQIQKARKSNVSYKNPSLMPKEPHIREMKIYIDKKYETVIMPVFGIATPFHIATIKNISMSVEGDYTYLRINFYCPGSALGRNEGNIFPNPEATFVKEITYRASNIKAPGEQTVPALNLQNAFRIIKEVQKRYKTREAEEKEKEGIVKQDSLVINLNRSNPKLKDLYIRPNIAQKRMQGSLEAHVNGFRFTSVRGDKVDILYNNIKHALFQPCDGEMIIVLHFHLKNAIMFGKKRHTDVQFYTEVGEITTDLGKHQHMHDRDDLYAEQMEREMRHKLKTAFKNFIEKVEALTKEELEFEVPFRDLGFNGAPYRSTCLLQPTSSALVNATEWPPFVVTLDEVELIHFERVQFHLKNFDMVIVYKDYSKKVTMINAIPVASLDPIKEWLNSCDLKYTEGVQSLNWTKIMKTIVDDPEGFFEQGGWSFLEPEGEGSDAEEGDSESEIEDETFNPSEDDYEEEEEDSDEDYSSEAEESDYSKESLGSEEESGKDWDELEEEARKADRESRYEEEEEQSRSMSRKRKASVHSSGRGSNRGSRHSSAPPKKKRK
T8 sequence (Q9H8H0 whole entry): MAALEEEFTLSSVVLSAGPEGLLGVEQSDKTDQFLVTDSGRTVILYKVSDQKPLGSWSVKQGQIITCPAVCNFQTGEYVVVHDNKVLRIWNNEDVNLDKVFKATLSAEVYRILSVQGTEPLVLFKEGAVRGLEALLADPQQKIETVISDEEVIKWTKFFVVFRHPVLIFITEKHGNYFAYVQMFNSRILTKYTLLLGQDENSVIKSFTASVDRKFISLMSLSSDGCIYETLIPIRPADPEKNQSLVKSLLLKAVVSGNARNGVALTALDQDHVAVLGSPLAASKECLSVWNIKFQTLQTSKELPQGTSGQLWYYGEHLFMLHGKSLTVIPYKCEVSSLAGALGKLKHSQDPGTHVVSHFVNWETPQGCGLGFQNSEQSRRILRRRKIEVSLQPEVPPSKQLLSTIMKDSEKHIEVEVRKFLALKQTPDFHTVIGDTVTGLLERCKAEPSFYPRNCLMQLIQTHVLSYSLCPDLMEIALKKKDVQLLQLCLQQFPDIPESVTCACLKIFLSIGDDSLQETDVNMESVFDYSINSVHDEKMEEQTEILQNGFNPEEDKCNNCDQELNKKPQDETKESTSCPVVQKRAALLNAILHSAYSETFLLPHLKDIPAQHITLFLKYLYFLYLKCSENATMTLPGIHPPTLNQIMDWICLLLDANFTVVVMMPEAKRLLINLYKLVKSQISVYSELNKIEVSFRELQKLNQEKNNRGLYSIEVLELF
T7 sequence (Q9BZG1 whole entry): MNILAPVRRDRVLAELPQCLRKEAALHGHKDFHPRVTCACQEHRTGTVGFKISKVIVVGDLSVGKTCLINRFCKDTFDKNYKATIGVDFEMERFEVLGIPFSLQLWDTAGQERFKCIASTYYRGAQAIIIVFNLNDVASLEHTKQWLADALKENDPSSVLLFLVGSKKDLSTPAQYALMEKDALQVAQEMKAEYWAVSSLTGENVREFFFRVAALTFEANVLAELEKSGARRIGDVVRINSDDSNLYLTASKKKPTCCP
T3 sequence (P62136 whole entry): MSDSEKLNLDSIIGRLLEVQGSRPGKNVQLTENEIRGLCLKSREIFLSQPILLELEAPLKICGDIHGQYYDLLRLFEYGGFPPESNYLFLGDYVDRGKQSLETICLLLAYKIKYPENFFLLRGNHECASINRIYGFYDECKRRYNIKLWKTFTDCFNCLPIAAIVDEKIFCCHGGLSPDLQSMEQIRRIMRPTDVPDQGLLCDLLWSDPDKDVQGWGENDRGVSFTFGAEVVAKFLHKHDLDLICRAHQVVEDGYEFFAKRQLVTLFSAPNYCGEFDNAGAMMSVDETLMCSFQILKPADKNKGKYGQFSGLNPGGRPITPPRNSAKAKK
T1 sequence (O75616 44-437): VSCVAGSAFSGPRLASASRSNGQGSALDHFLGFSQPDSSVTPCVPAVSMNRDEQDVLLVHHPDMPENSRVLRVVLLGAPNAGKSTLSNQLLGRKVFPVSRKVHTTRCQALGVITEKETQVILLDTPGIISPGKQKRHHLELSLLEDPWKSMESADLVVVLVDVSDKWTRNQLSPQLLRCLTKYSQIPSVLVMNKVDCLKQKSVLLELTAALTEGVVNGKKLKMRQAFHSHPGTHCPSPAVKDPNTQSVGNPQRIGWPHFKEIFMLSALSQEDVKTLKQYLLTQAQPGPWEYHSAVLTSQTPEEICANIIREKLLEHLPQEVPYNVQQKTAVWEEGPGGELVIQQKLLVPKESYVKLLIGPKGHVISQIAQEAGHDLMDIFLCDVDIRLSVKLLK
T6 sequence (Q92621 whole entry): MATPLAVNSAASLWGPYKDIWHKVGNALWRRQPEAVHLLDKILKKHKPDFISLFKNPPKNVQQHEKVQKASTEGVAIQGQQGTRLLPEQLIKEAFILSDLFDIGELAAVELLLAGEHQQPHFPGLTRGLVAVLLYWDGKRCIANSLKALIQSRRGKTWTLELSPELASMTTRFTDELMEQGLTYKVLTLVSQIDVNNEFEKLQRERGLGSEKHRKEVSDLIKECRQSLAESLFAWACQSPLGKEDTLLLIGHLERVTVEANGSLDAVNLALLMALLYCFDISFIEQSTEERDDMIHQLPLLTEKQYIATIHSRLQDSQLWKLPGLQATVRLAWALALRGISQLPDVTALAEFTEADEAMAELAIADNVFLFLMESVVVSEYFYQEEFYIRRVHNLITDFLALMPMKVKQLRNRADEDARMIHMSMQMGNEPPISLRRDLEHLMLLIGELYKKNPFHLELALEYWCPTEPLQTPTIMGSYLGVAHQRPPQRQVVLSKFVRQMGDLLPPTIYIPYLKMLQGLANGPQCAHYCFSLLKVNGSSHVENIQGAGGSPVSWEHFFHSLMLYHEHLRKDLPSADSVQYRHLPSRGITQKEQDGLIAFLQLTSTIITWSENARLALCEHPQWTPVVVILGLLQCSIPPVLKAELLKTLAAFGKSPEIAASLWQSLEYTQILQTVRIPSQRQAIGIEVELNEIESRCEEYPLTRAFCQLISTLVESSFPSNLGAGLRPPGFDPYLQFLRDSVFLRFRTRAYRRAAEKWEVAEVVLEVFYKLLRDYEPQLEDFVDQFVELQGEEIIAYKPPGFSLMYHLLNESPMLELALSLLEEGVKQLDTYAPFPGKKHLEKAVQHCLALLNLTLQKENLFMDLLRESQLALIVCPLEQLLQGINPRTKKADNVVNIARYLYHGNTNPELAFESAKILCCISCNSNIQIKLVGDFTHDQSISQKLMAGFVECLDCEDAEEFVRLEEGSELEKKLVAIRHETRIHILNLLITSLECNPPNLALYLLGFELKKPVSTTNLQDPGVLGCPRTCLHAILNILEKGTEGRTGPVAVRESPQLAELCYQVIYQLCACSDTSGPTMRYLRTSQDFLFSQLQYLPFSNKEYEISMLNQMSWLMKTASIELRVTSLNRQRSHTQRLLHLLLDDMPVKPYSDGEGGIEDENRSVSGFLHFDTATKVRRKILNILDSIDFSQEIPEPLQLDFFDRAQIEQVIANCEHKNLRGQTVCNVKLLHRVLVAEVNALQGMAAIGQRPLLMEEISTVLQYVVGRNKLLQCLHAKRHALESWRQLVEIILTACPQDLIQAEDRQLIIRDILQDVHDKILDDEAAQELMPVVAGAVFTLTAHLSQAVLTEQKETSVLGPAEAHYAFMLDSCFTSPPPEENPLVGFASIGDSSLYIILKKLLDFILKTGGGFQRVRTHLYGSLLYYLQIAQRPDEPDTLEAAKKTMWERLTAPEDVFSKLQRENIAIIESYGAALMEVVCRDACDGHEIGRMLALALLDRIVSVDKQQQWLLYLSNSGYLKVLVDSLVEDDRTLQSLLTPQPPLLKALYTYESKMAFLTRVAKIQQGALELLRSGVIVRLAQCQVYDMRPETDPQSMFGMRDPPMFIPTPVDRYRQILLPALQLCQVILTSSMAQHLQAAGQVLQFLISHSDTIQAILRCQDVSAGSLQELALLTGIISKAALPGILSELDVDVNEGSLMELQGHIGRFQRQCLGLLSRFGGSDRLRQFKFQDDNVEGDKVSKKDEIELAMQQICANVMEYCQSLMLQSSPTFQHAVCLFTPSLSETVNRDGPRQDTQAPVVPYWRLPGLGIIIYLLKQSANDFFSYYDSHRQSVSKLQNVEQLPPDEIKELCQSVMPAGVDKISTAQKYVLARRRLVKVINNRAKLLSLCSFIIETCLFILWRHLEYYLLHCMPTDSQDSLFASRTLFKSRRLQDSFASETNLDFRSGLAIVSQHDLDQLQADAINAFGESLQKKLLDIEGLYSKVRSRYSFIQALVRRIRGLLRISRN

As for `Cn1c2c(c(=N)c3c1CCC3)CCC2` [Compound 1, 4-methyl-2,3,4,5,6,7-hexahydrodicyclopenta[b,e]pyridin-8(1H)-imine], the Difference in [1] (Cmpd minus DMSO, -LOG(P-value) 0.929321) is given as 2.334; in assay [2] (Cmpd minus DMSO, -LOG(P-value) 0.868477), -1.064; in [3] (Cmpd minus DMSO, -LOG(P-value) 1.15373) it was 2.296; in assay [4] (Cmpd minus DMSO, -LOG(P-value) 0.742167) it was 3.21; in assay [5] (Cmpd minus DMSO, -LOG(P-value) 0.904761), 3.386; in [6] (Cmpd minus DMSO, -LOG(P-value) 0.772292), 1.661. In addition, the Difference in assay [7] (Cmpd minus DMSO, -LOG(P-value) 1.66704) was 2.667; in assay [8] (Cmpd minus DMSO, -LOG(P-value) 1.02475) it was -0.9892; in assay [9] (Cmpd minus DMSO, -LOG(P-value) 1.00789) it was 2.584; in assay [10] (Cmpd minus DMSO, -LOG(P-value) 1.35125), 1.168. In addition, the “iBAQ Cmpd” value in assay [1] (replicates 1-3) is 17.6381 and 15.7018 and 17.9385; in assay [2] (replicates 1-3), 20.5029 and 19.445 and 19.2006; in assay [3] (replicates 1-3) it was 15.2178 and 17.9982 and 17.5212; in [4] (replicates 1-3), 19.3082 and 19.1191 and 19.5272; in assay [5] (replicates 1-3) it was 21.59 and 20.9827 and 19.5819; in [6] (replicates 1-3), 17.4605 and 16.7059 and 15.0689. Also, the “iBAQ Cmpd” value in assay [7] (replicates 1-3) was 18.8001 and 17.2488 and 16.5904; in assay [8] (replicates 1-3), 17.1431 and 16.1539 and 16.3373; in [9] (replicates 1-3), 18.8307 and 17.054 and 17.709; in assay [10] (replicates 1-3), 20.1986 and 19.3251 and 19.6735.
